Laboratory results reported in the supplement of paper PMC10307832.

Tests used:
Assay in all cases: relative viability (nuclei count vs DMSO), 5 days (fraction); higher = more cells survive
[1] = compound: C1CNCCC1C2=CC(=NN2)C3=CC=NC=C3 + Cc1cc(Nc2cc(N3CCN(C)CC3)nc(Sc3ccc(NC(=O)C4CC4)cc3)n2)n[nH]1 [Tozasertib] (partner 0.1 µM)
Summary of the method: (§1)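 Relative viability divides the nuclei count in treated wells by that in vehicle wells. Lung cancer cell lines were seeded in 1536-well plates, dosed by pin tool the next day, and fixed and stained after 5 days in one step with final 0.05% Triton X-100, 1% formaldehyde and 1 ug/ml Hoechst. Dosing was a single drug or a fixed anchor-drug dose plus five library-drug doses (not always all listed) in √10 steps, and values are medians of duplicate plates imaged at 4×.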

[2] = compound: C[C@@H](N)c1ccc(C(=O)Nc2ccnc3[nH]ccc23)cc1 + C[C@]1(O)C[C@@H](c2nc(-c3ccc4ccc(-c5ccccc5)nc4c3)c3c(N)nccn32)C1 [Linsitinib] (partner 1 µM)
Summary of the method: as §1

[3] = compound: C[C@@H](N)c1ccc(C(=O)Nc2ccnc3[nH]ccc23)cc1 + N=C(N)NC(=N)NCCc1ccccc1 [Phenformin] (partner 250 µM)
Summary of the method: as §1

[4] = compound: C1CNCCC1C2=CC(=NN2)C3=CC=NC=C3 + O=C(c1cc(Cc2n[nH]c(=O)c3ccccc23)ccc1F)N1CCN(C(=O)C2CC2)CC1 [Olaparib] (partner 8 µM)
Summary of the method: as §1

## NCI-H1975
[1]; first compound 0.08 µM
  relative viability: 0.885
[1]; first compound 0.8 µM
  relative viability: 0.759
[1]; first compound 2.53 µM
  relative viability: 0.725
[1]; first compound 8 µM
  relative viability: 0.724
[2]; first compound 0.04 µM
  relative viability: 1.01
[2]; first compound 0.1265 µM
  relative viability: 0.915
[2]; first compound 0.4 µM
  relative viability: 0.964
[2]; first compound 1.265 µM
  relative viability: 0.778
[2]; first compound 4 µM
  relative viability: 0.619
[3]; first compound 0.04 µM
  relative viability: 0.359
[3]; first compound 0.1265 µM
  relative viability: 0.405
[3]; first compound 0.4 µM
  relative viability: 0.39
[3]; first compound 1.265 µM
  relative viability: 0.347
[3]; first compound 4 µM
  relative viability: 0.255
[4]; first compound 0.08 µM
  relative viability: 0.87
[4]; first compound 0.8 µM
  relative viability: 0.894
[4]; first compound 2.53 µM
  relative viability: 0.936
[4]; first compound 8 µM
  relative viability: 0.778

## Calu-6
[2]; first compound 0.04 µM
  relative viability: 0.757
[2]; first compound 0.1265 µM
  relative viability: 0.952
[2]; first compound 0.4 µM
  relative viability: 0.984
[2]; first compound 1.265 µM
  relative viability: 0.922
[2]; first compound 4 µM
  relative viability: 0.839
[4]; first compound 0.08 µM
  relative viability: 0.565
[4]; first compound 0.8 µM
  relative viability: 0.6
[4]; first compound 2.53 µM
  relative viability: 0.62
[4]; first compound 8 µM
  relative viability: 0.497

## NCI-H1648
[1]; first compound 0.08 µM
  relative viability: 0.425
[1]; first compound 0.8 µM
  relative viability: 0.475
[1]; first compound 2.53 µM
  relative viability: 0.461
[1]; first compound 8 µM
  relative viability: 0.508
[4]; first compound 0.08 µM
  relative viability: 1.02
[4]; first compound 0.8 µM
  relative viability: 0.817
[4]; first compound 8 µM
  relative viability: 1.3

## NCI-H1623
[1]; first compound 0.08 µM
  relative viability: 0.434
[1]; first compound 0.8 µM
  relative viability: 0.446
[1]; first compound 2.53 µM
  relative viability: 0.439
[1]; first compound 8 µM
  relative viability: 0.454
[3]; first compound 0.04 µM
  relative viability: 0.637
[3]; first compound 0.1265 µM
  relative viability: 0.528
[3]; first compound 0.4 µM
  relative viability: 0.415
[3]; first compound 1.265 µM
  relative viability: 0.29
[3]; first compound 4 µM
  relative viability: 0.622

## NCI-H3122
[1]; first compound 0.08 µM
  relative viability: 0.366
[1]; first compound 0.8 µM
  relative viability: 0.416
[1]; first compound 2.53 µM
  relative viability: 0.408
[1]; first compound 8 µM
  relative viability: 0.417
[2]; first compound 0.04 µM
  relative viability: 1.03
[2]; first compound 0.1265 µM
  relative viability: 0.985
[2]; first compound 0.4 µM
  relative viability: 0.964
[2]; first compound 1.265 µM
  relative viability: 1.02
[2]; first compound 4 µM
  relative viability: 1.03
[3]; first compound 0.04 µM
  relative viability: 0.352
[3]; first compound 0.1265 µM
  relative viability: 0.413
[3]; first compound 0.4 µM
  relative viability: 0.39
[3]; first compound 4 µM
  relative viability: 0.377
[4]; first compound 0.08 µM
  relative viability: 0.571
[4]; first compound 0.8 µM
  relative viability: 0.6
[4]; first compound 2.53 µM
  relative viability: 0.583
[4]; first compound 8 µM
  relative viability: 0.61

## NCI-H2347
[1]; first compound 0.08 µM
  relative viability: 0.766
[1]; first compound 0.8 µM
  relative viability: 0.599
[1]; first compound 2.53 µM
  relative viability: 0.557
[1]; first compound 8 µM
  relative viability: 0.571
[2]; first compound 0.04 µM
  relative viability: 0.937
[2]; first compound 0.1265 µM
  relative viability: 0.868
[2]; first compound 0.4 µM
  relative viability: 1.02
[2]; first compound 1.265 µM
  relative viability: 1.02
[2]; first compound 4 µM
  relative viability: 0.8
[3]; first compound 0.04 µM
  relative viability: 0.502
[3]; first compound 0.1265 µM
  relative viability: 0.532
[3]; first compound 0.4 µM
  relative viability: 0.546
[3]; first compound 4 µM
  relative viability: 0.584
[4]; first compound 0.08 µM
  relative viability: 0.534
[4]; first compound 0.8 µM
  relative viability: 0.514
[4]; first compound 2.53 µM
  relative viability: 0.477
[4]; first compound 8 µM
  relative viability: 0.571

## HCC-44
[1]; first compound 0.08 µM
  relative viability: 0.873
[1]; first compound 0.8 µM
  relative viability: 1.32
[1]; first compound 2.53 µM
  relative viability: 1.1
[1]; first compound 8 µM
  relative viability: 0.897
[2]; first compound 0.04 µM
  relative viability: 0.703
[2]; first compound 0.1265 µM
  relative viability: 0.682
[2]; first compound 0.4 µM
  relative viability: 0.708
[2]; first compound 1.265 µM
  relative viability: 0.713
[2]; first compound 4 µM
  relative viability: 0.532
[3]; first compound 0.04 µM
  relative viability: 0.138
[3]; first compound 0.1265 µM
  relative viability: 0.172
[3]; first compound 0.4 µM
  relative viability: 0.285
[3]; first compound 1.265 µM
  relative viability: 0.1
[3]; first compound 4 µM
  relative viability: 0.218
[4]; first compound 0.08 µM
  relative viability: 0.979
[4]; first compound 0.8 µM
  relative viability: 1.06
[4]; first compound 2.53 µM
  relative viability: 0.953
[4]; first compound 8 µM
  relative viability: 0.957

## HCC-78
[1]; first compound 0.08 µM
  relative viability: 0.439
[1]; first compound 0.8 µM
  relative viability: 0.325
[1]; first compound 2.53 µM
  relative viability: 0.459
[1]; first compound 8 µM
  relative viability: 0.392
[2]; first compound 0.04 µM
  relative viability: 0.776
[2]; first compound 0.1265 µM
  relative viability: 0.518
[2]; first compound 0.4 µM
  relative viability: 0.804
[2]; first compound 1.265 µM
  relative viability: 0.735
[2]; first compound 4 µM
  relative viability: 0.424
[3]; first compound 0.04 µM
  relative viability: 1.05
[3]; first compound 0.1265 µM
  relative viability: 0.818
[3]; first compound 0.4 µM
  relative viability: 0.855
[3]; first compound 1.265 µM
  relative viability: 0.797
[3]; first compound 4 µM
  relative viability: 0.797
[4]; first compound 0.08 µM
  relative viability: 0.821
[4]; first compound 2.53 µM
  relative viability: 0.985
[4]; first compound 8 µM
  relative viability: 0.748

## COR-L23
[1]; first compound 0.08 µM
  relative viability: 0.222
[1]; first compound 0.8 µM
  relative viability: 0.201
[1]; first compound 2.53 µM
  relative viability: 0.229
[1]; first compound 8 µM
  relative viability: 0.172
[2]; first compound 0.04 µM
  relative viability: 0.968
[2]; first compound 0.1265 µM
  relative viability: 0.925
[2]; first compound 0.4 µM
  relative viability: 0.874
[2]; first compound 1.265 µM
  relative viability: 0.744
[2]; first compound 4 µM
  relative viability: 0.442
[3]; first compound 0.04 µM
  relative viability: 0.44
[3]; first compound 0.1265 µM
  relative viability: 0.526
[3]; first compound 0.4 µM
  relative viability: 0.442
[3]; first compound 1.265 µM
  relative viability: 0.28
[3]; first compound 4 µM
  relative viability: 0.277
[4]; first compound 0.08 µM
  relative viability: 0.287
[4]; first compound 0.8 µM
  relative viability: 0.344
[4]; first compound 2.53 µM
  relative viability: 0.323
[4]; first compound 8 µM
  relative viability: 0.406
